Our source for the IC50 values is patent publication US9452986B2, “6-heteroaryloxy- or 6-aryloxy-quinoline-2-carboxamides and method of use” (AbbVie Inc., priority 2014, dated 2016).

In the assay the target is recombinant human Nav1.7 (Homo sapiens (Human), UniProt Q15858). The assay can be described thus: FRET-based membrane potential assay, recombinant human sodium channel Nav1.7. The class given is cell-based. The note with it: read-out: FRET-Membrane Potential Nav1.7 IC50. The gist of the method:
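Channel activation used veratridine at its EC80, set by a dilution curve each experiment, together with Leiurus scorpion venom, added 3 min after compound. Membrane-potential ratio signals from FLIPR Tetra in HEPES-buffered HBSS were fitted to a four-parameter Hill equation for percent inhibition and IC50.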

Where [1] appears, read: HEK293 cells stably expressing recombinant human Nav1.7, veratridine + scorpion venom depolarization.

Each structure is given as a SMILES string. Like-named read-outs stand apart in the source and are kept apart here.

Chain of recombinant human Nav1.7 (Q15858 whole entry): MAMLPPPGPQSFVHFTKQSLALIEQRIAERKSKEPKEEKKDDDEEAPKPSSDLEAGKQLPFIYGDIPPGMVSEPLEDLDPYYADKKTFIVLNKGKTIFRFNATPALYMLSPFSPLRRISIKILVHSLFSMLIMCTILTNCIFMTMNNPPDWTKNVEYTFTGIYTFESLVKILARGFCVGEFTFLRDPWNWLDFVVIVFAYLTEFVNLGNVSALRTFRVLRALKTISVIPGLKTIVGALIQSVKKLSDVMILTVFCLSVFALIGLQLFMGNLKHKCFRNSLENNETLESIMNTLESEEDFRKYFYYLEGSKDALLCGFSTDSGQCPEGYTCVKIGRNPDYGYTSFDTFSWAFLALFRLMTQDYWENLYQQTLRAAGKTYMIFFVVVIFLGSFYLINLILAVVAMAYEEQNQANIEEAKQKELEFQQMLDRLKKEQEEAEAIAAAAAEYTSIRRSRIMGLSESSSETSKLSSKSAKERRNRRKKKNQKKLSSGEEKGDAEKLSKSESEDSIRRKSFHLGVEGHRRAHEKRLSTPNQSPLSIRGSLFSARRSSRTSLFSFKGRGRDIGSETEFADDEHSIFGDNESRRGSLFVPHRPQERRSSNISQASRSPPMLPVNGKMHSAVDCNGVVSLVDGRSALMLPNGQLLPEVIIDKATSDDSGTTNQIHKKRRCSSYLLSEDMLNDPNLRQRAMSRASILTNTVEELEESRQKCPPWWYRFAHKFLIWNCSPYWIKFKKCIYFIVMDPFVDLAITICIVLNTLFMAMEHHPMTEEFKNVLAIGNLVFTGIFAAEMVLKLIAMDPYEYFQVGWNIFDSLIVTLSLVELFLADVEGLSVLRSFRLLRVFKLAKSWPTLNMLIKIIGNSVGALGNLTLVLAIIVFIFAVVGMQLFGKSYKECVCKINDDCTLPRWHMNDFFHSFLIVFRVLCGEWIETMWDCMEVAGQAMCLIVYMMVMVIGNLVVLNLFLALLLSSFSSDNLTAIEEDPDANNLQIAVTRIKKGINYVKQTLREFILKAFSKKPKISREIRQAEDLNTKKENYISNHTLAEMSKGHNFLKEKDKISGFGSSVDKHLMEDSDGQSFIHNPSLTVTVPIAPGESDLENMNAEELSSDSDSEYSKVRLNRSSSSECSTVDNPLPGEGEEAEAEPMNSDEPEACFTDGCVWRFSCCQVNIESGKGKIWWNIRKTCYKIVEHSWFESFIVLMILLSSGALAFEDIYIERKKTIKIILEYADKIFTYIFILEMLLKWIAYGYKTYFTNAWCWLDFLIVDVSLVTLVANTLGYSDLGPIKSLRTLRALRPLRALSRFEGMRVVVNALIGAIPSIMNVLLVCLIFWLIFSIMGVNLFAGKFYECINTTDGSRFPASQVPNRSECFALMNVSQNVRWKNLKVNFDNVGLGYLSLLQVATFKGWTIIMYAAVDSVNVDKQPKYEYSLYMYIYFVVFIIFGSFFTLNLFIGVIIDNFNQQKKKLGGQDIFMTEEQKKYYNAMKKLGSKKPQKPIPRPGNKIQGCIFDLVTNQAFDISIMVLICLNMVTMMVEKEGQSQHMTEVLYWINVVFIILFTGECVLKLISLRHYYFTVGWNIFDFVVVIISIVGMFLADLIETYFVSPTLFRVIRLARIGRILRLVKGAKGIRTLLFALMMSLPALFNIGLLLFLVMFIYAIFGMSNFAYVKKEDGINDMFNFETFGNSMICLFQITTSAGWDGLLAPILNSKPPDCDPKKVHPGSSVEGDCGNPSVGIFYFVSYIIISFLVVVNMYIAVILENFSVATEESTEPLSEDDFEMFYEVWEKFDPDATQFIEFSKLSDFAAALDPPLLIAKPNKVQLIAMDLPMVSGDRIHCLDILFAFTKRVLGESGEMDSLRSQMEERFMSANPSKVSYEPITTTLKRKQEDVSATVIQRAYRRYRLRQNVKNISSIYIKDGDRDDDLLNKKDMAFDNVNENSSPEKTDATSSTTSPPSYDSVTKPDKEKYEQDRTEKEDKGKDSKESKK

Usually IC50 stands for the concentration needed to halve the response being measured. As to `N#Cc1ccc(Oc2ccc3nc(C(=O)Nc4nccs4)ccc3c2)cc1` [Example 88, 6-(4-cyanophenoxy)-N-(1,3-thiazol-2-yl)quinoline-2-carboxamide], the IC50 under setting [1] was over 20 µM. The same measure, in the same setting: to `O=C(c1ccc2cc(Oc3ccc(C(F)(F)F)cn3)ccc2n1)N1CC[C@H](F)[C@H](O)C1` (relative stereo) [Example 192, [cis-4-fluoro-3-hydroxypiperidin-1-yl](6-{[5-(trifluoromethyl)pyridin-2-yl]oxy}quinolin-2-yl)methanone] belongs 17.7 µM. As to `CS(=O)(=O)N1CCN(C(=O)c2ccc3cc(Oc4ccc(C(F)(F)F)cn4)ccc3n2)CC1` [Example 176, [4-(methylsulfonyl)piperazin-1-yl](6-{[5-(trifluoromethyl)pyridin-2-yl]oxy}quinolin-2-yl)methanone], the IC50 was determined as 8.77 µM. With `O=C1CCC2N1CCCN2C(=O)c1ccc2cc(Oc3ccc(C(F)(F)F)cn3)ccc2n1` (stereo not drawn) [Example 614, 1-[(6-{[5-(trifluoromethyl)pyridin-2-yl]oxy}quinolin-2-yl)carbonyl]hexahydropyrrolo[1,2-a]pyrimidin-6(2H)-one], under setting [1], the IC50 is 12.2 µM.

`O=C(c1ccc2cc(Oc3ccc(C(F)(F)F)cn3)ccc2n1)N1CCN(Cc2ncco2)CC1` [Example 510, [4-(1,3-oxazol-2-ylmethyl)piperazin-1-yl](6-{[5-(trifluoromethyl)pyridin-2-yl]oxy}quinolin-2-yl)methanone]: the IC50 under setting [1] was found to be 7.29 µM.

For `C=CCN(C)C(=O)c1ccc2cc(Oc3ccc(C(F)(F)F)cn3)ccc2n1` [Example 366, N-allyl-N-methyl-6-{[5-(trifluoromethyl)pyridin-2-yl]oxy}quinoline-2-carboxamide], the IC50 under setting [1] was found to be 3.18 µM. On the same count and under the same terms, to `O=C(c1ccc2cc(Oc3ccc(C(F)(F)F)cn3)ccc2n1)N1CC[C@@H](F)[C@H](O)C1` (relative stereo) [Example 196, [trans-4-fluoro-3-hydroxypiperidin-1-yl](6-{[5-(trifluoromethyl)pyridin-2-yl]oxy}quinolin-2-yl)methanone] belongs 4.93 µM; to `COCCOC1CN(C(=O)c2ccc3cc(Oc4ccc(C(F)(F)F)cn4)ccc3n2)C1` [Example 427, [3-(2-methoxyethoxy)azetidin-1-yl](6-{[5-(trifluoromethyl)pyridin-2-yl]oxy}quinolin-2-yl)methanone], over 20 µM.

On to `CO[C@@H]1CCN(C(=O)c2ccc3cc(Oc4ccc(C(F)(F)F)cn4)ccc3n2)C1` [Example 588, [(3R)-3-methoxypyrrolidin-1-yl](6-{[5-(trifluoromethyl)pyridin-2-yl]oxy}quinolin-2-yl)methanone], for which the IC50 turned out to be 3.64 µM. For `Cc1nc(CN2CCN(C(=O)c3ccc4cc(Oc5ccc(C(F)(F)F)cn5)ccc4n3)CC2)co1` [Example 531, {4-[(2-methyl-1,3-oxazol-4-yl)methyl]piperazin-1-yl}(6-{[5-(trifluoromethyl)pyridin-2-yl]oxy}quinolin-2-yl)methanone], under setting [1], the half-inhibitory concentration (IC50) came out at 3.57 µM. For the molecule `O=C(NCC1COC1)c1ccc2cc(Oc3ccc(C(F)(F)F)cn3)ccc2n1` [Example 482, N-(oxetan-3-ylmethyl)-6-{[5-(trifluoromethyl)pyridin-2-yl]oxy}quinoline-2-carboxamide], the IC50 is 0.569 µM. For `O=C(c1ccc2cc(Oc3ccc(C(F)(F)F)cn3)ccc2n1)N1CCC(=O)N2C[C@@H](O)C[C@H]2C1` [Example 212, (8S,9aS)-8-hydroxy-2-[(6-{[5-(trifluoromethyl)pyridin-2-yl]oxy}quinolin-2-yl)carbonyl]octahydro-5H-pyrrolo[1,2-a][1,4]diazepin-5-one], the IC50 under setting [1] was over 20 µM. As to `O=C(c1ccc2cc(Oc3ccc(C(F)(F)F)cn3)ccc2n1)N1CCN(c2cccnc2)CC1` [Example 269, [4-(pyridin-3-yl)piperazin-1-yl](6-{[5-(trifluoromethyl)pyridin-2-yl]oxy}quinolin-2-yl)methanone], the IC50 under setting [1] stood at 3.07 µM.

Regarding `C[C@@H]1CN2CC(F)(F)C[C@@H]2CN1C(=O)c1ccc2cc(Oc3ccc(C(F)(F)F)cn3)ccc2n1` [Example 358, [(3R,8aR)-7,7-difluoro-3-methylhexahydropyrrolo[1,2-a]pyrazin-2(1H)-yl](6-{[5-(trifluoromethyl)pyridin-2-yl]oxy}quinolin-2-yl)methanone], the IC50 under setting [1] came to 1.31 µM. With `O=C(c1ccc2cc(Oc3ccc(C(F)(F)F)cn3)ccc2n1)N1CC2CNCCN2C1=O` (stereo not drawn) [Example 189, 2-[(6-{[5-(trifluoromethyl)pyridin-2-yl]oxy}quinolin-2-yl)carbonyl]hexahydroimidazo[1,5-a]pyrazin-3(2H)-one], the IC50 under setting [1] was found to be 15.1 µM. As to `O=C(c1ccc2cc(Oc3ccc(C(F)(F)F)cn3)ccc2n1)N1CCN(c2cnccn2)CC1` [Example 268, [4-(pyrazin-2-yl)piperazin-1-yl](6-{[5-(trifluoromethyl)pyridin-2-yl]oxy}quinolin-2-yl)methanone], the IC50 under setting [1] came to 2.98 µM. On to `CON=C1CCN(C(=O)c2ccc3cc(Oc4ccc(C(F)(F)F)cn4)ccc3n2)CC1` [Example 353, [4-(methoxyimino)piperidin-1-yl](6-{[5-(trifluoromethyl)pyridin-2-yl]oxy}quinolin-2-yl)methanone], for which the IC50 worked out at 3.63 µM. In the case of `O=C(NC1CCS(=O)(=O)C1)c1ccc2cc(Oc3ccc(Cl)nn3)ccc2n1` (stereo not drawn) [Example 165, 6-[(6-chloropyridazin-3-yl)oxy]-N-(1,1-dioxidotetrahydrothiophen-3-yl)quinoline-2-carboxamide], the IC50 under setting [1] was over 20 µM. On the same count and under the same terms, to `O=C(c1ccc2cc(Oc3ccc(C(F)(F)F)nc3)ccc2n1)N1CCN[C@H](CO)C1` [Example 545, [(3S)-3-(hydroxymethyl)piperazin-1-yl](6-{[6-(trifluoromethyl)pyridin-3-yl]oxy}quinolin-2-yl)methanone] belongs 3.7 µM. With `O=C(c1ccc2cc(Oc3ccc(C(F)F)cn3)ccc2n1)N1CC[C@@H](F)C1` [Example 575, (6-{[5-(difluoromethyl)pyridin-2-yl]oxy}quinolin-2-yl) [(3R)-3-fluoropyrrolidin-1-yl]methanone], under setting [1], the half-maximal inhibitory concentration (IC50) turned out to be 12.1 µM. As to `CNC(=O)[C@@H]1CCCN1C(=O)c1ccc2cc(Oc3ccc(C(F)F)cn3)ccc2n1` [Example 455, 1-[(6-{[5-(difluoromethyl)pyridin-2-yl]oxy}quinolin-2-yl)carbonyl]-N-methyl-L-prolinamide], the IC50 is over 20 µM.

Regarding `O=C(c1ccc2cc(Oc3ccc(C(F)(F)F)cn3)ccc2n1)N1CC2(C1)OCCO2` [Example 476, 5,8-dioxa-2-azaspiro[3.4]oct-2-yl(6-{[5-(trifluoromethyl)pyridin-2-yl]oxy}quinolin-2-yl)methanone], the IC50 under setting [1] was found to be 3.92 µM.

In the case of `O=C(NC1CCS(=O)(=O)C1)c1ccc2cc(Oc3ncc(C(F)(F)F)cn3)ccc2n1` (stereo not drawn) [Example 155, N-(1,1-dioxidotetrahydrothiophen-3-yl)-6-{[5-(trifluoromethyl)pyrimidin-2-yl]oxy}quinoline-2-carboxamide], the IC50 was 5.38 µM. The same measure, in the same setting: to `CN(CC(=O)NC1CC1)C(=O)c1ccc2cc(Oc3ccc(C(F)(F)F)nc3)ccc2n1` [Example 522, N-[2-(cyclopropylamino)-2-oxoethyl]-N-methyl-6-{[6-(trifluoromethyl)pyridin-3-yl]oxy}quinoline-2-carboxamide] belongs 10.7 µM.

Turning to `CCNS(=O)(=O)N1CCN(C(=O)c2ccc3cc(Oc4ccc(C(F)(F)F)cn4)ccc3n2)CC1` [Example 236, N-ethyl-4-[(6-{[5-(trifluoromethyl)pyridin-2-yl]oxy}quinolin-2-yl)carbonyl]piperazine-1-sulfonamide], the IC50 amounted to 1.01 µM. With `O=C(c1ccc2cc(Oc3ccc(C(F)(F)F)cn3)ccc2n1)N1CCC(CO)CC1` [Example 265, [4-(hydroxymethyl)piperidin-1-yl](6-{[5-(trifluoromethyl)pyridin-2-yl]oxy}quinolin-2-yl)methanone], under setting [1], the IC50 is 3.45 µM. Regarding `CN(C)C(=O)CN(C)C(=O)c1ccc2cc(Oc3ccc(C(F)(F)F)cn3)ccc2n1` [Example 413, N-[2-(dimethylamino)-2-oxoethyl]-N-methyl-6-{[5-(trifluoromethyl)pyridin-2-yl]oxy}quinoline-2-carboxamide], the IC50 under setting [1] stood at 12.4 µM. Take `CC(=O)Nc1ncc(S(=O)(=O)N2CCN(C(=O)c3ccc4cc(Oc5ccc(C(F)(F)F)cn5)ccc4n3)CC2)s1` [Example 389, N-[5-({4-[(6-{[5-(trifluoromethyl)pyridin-2-yl]oxy}quinolin-2-yl)carbonyl]piperazin-1-yl}sulfonyl)-1,3-thiazol-2-yl]acetamide]: the IC50 under setting [1] turned out to be 9.22 µM. `O=C1NCC(=O)N2CCN(C(=O)c3ccc4cc(Oc5ccc(C(F)(F)F)cn5)ccc4n3)CC12` (stereo not drawn) [Example 171, 8-[(6-{[5-(trifluoromethyl)pyridin-2-yl]oxy}quinolin-2-yl)carbonyl]tetrahydro-2H-pyrazino[1,2-a]pyrazine-1,4(3H,6H)-dione]: the IC50 under setting [1] worked out at 7.95 µM.

Take `N#Cc1ccc(Oc2ccc3nc(C(=O)N[C@H]4CCC[C@@H]4O)ccc3c2)cc1` [Example 121, 6-(4-cyanophenoxy)-N-[(1S,2S)-2-hydroxycyclopentyl]quinoline-2-carboxamide]: the IC50 stood at 1.66 µM.

Take `CN1CC(NC(=O)c2ccc3cc(Oc4ccc(C(F)(F)F)nc4)ccc3n2)CC1=O` (stereo not drawn) [Example 519, N-(1-methyl-5-oxopyrrolidin-3-yl)-6-{[6-(trifluoromethyl)pyridin-3-yl]oxy}quinoline-2-carboxamide]: the IC50 under setting [1] is 1.16 µM. Same read-out and setting: to `O=C(N[C@H]1CCC[C@H]1O)c1ccc2cc(Oc3ccc(C(F)(F)F)cn3)ccc2n1` [Example 401, N-[(1S,2R)-2-hydroxycyclopentyl]-6-{[5-(trifluoromethyl)pyridin-2-yl]oxy}quinoline-2-carboxamide] belongs 0.4 µM. Regarding `CN1CC(NC(=O)c2ccc3cc(Oc4ccc(C(F)F)cn4)ccc3n2)CC1=O` (stereo not drawn) [Example 462, 6-{[5-(difluoromethyl)pyridin-2-yl]oxy}-N-(1-methyl-5-oxopyrrolidin-3-yl)quinoline-2-carboxamide], the IC50 amounted to 0.947 µM.
